Measurements: publication PMC2713172 (Biochemistry, 2008)
Where two headings read alike, the source gives them in different places.

What was measured:
[1] = biological target: T1, CYP2C9 F114W/F476W double mutant (Homo sapiens, UniProt P11712, F114W/F476W)
CYP2C9 F100L mutant [2] = biological target: T2, CYP2C9 F100L mutant (Homo sapiens, UniProt P11712, F100L); experiment: in vitro; settings: pH 7.4
CYP2C9 F100L mutant [3] = biological target: T2, CYP2C9 F100L mutant; experiment: biochemical
wild-type CYP2C9 [4] = biological target: T3, wild-type CYP2C9 (Homo sapiens, UniProt P11712)
CYP2C9 F476W mutant [5] = biological target: T4, CYP2C9 F476W mutant (Homo sapiens, UniProt P11712, F476W); experiment: 1H-NMR T1 relaxation, distances of ligand protons from the heme iron
wild-type CYP2C9 [6] = biological target: T3, wild-type CYP2C9; settings: WT; for T1, 2C9 + CO: dithionite/CO
CYP2C9 F114W mutant [7] = biological target: T5, CYP2C9 F114W mutant (Homo sapiens, UniProt P11712, F114W); settings: F114W
CYP2C9 F114L mutant [8] = biological target: T6, CYP2C9 F114L mutant (Homo sapiens, UniProt P11712, F114L)
CYP2C9 F114W mutant [9] = biological target: T5, CYP2C9 F114W mutant; experiment: biochemical
[10] = biological target: T7, CYP2C9 F114L/F476L double mutant (Homo sapiens, UniProt P11712, F114L/F476L)
CYP2C9 F476W mutant [11] = biological target: T4, CYP2C9 F476W mutant; experiment: biochemical
CYP2C9 F100L mutant [12] = biological target: T2, CYP2C9 F100L mutant; settings: F100L
CYP2C9 F476W mutant [13] = biological target: T4, CYP2C9 F476W mutant
CYP2C9 F114L mutant [14] = biological target: T6, CYP2C9 F114L mutant; experiment: biochemical
CYP2C9 F476W mutant [15] = biological target: T4, CYP2C9 F476W mutant; remark: listed apart in the source
[16] = biological target: T1, CYP2C9 F114W/F476W double mutant; settings: F114W/F476W
CYP2C9 F114W mutant [17] = biological target: T5, CYP2C9 F114W mutant
CYP2C9 F114L mutant [18] = biological target: T6, CYP2C9 F114L mutant; settings: F114L
CYP2C9 F476L mutant [19] = biological target: T8, CYP2C9 F476L mutant (Homo sapiens, UniProt P11712, F476L)
[20] = biological target: T7, CYP2C9 F114L/F476L double mutant; experiment: biochemical
CYP2C9 F100L mutant [21] = biological target: T2, CYP2C9 F100L mutant
CYP2C9 F476L mutant [22] = biological target: T8, CYP2C9 F476L mutant; experiment: biochemical
[23] = biological target: T1, CYP2C9 F114W/F476W double mutant; experiment: biochemical
wild-type CYP2C9 [24] = biological target: T3, wild-type CYP2C9; remark: listed apart in the source

- percent of wild-type kcat/Km [1]: 3%
- kcat ([1]; substrate hydroxylation): 0.0517 ± 0.0013 s⁻¹
- Km at 20 min (CYP2C9 F100L mutant [2]): 34.8 ± 7 µM
- Kd (CYP2C9 F100L mutant [3]): 2.2 ± 0.2 µM
- H2O2/O2 (wild-type CYP2C9 [4]; WT): 0.43
- H2O/Metabolite (wild-type CYP2C9 [4]; WT): 0.7
- Metabolite/NADPH (wild-type CYP2C9 [4]; WT, coupling efficiency): 0.21
- coupling of hydroxylation to NADPH consumption (wild-type CYP2C9 [4]; wild-type CYP2C9): ~ 20%
- T1, 2C9 (CYP2C9 F476W mutant [5]; proton H2): 2.56 (0.15) seconds
- r, distance of proton from the heme iron (CYP2C9 F476W mutant [5]; proton H2): 6.58 (0.28) angstroms
- T1, 2C9 + CO (CYP2C9 F476W mutant [5]; proton H2, dithionite/CO): 2.34 (0.14) seconds
- T1, 2C9 (CYP2C9 F476W mutant [5]; proton H4′): 2.88 (0.14) seconds
- r, distance of proton from the heme iron (CYP2C9 F476W mutant [5]; proton H4′): 6.40 (0.32) angstroms
- T1, 2C9 + CO (CYP2C9 F476W mutant [5]; proton H4′, dithionite/CO): 2.55 (0.16) seconds
- T1, 2C9 (CYP2C9 F476W mutant [5]; proton H5): 2.11 (0.10) seconds
- r, distance of proton from the heme iron (CYP2C9 F476W mutant [5]; proton H5): 6.47 (0.24) angstroms
- T1, 2C9 + CO (CYP2C9 F476W mutant [5]; proton H5, dithionite/CO): 2.24 (0.18) seconds
- T1, 2C9 (CYP2C9 F476W mutant [5]; proton H6): 1.78 (0.08) seconds
- r, distance of proton from the heme iron (CYP2C9 F476W mutant [5]; proton H6): 6.79 (0.22) angstroms
- T1, 2C9 + CO (CYP2C9 F476W mutant [5]; proton H6, dithionite/CO): 1.85 (0.08) seconds
- T1, 2C9 (CYP2C9 F476W mutant [5]; protons CH3): 0.67 (0.01) seconds
- r, distance of proton from the heme iron (CYP2C9 F476W mutant [5]; protons CH3): 5.62 (0.25) angstroms
- T1, 2C9 + CO (CYP2C9 F476W mutant [5]; protons CH3, dithionite/CO): 0.65 (0.03) seconds
- T1, 2C9 (CYP2C9 F476W mutant [5]; protons H2′/6′): 2.38 (0.06) seconds
- r, distance of proton from the heme iron (CYP2C9 F476W mutant [5]; protons H2′/6′): 7.15 (0.13) angstroms
- T1, 2C9 + CO (CYP2C9 F476W mutant [5]; protons H2′/6′, dithionite/CO): 2.54 (0.07) seconds
- T1, 2C9 (CYP2C9 F476W mutant [5]; protons H3′/5′): 2.39 (0.08) seconds
- r, distance of proton from the heme iron (CYP2C9 F476W mutant [5]; protons H3′/5′): 6.49 (0.20) angstroms
- T1, 2C9 + CO (CYP2C9 F476W mutant [5]; protons H3′/5′, dithionite/CO): 2.39 (0.16) seconds
- T1, 2C9 (wild-type CYP2C9 [6]; proton H2): 2.44 (0.10) seconds
- r, distance of proton from the heme iron (wild-type CYP2C9 [6]; proton H2): 5.95 (0.11) angstroms
- T1, 2C9 + CO (wild-type CYP2C9 [6]; proton H2): 2.79 (0.14) seconds
- T1, 2C9 (wild-type CYP2C9 [6]; proton H4′): 3.44 (0.26) seconds
- r, distance of proton from the heme iron (wild-type CYP2C9 [6]; proton H4′): 6.11 (0.19) angstroms
- T1, 2C9 + CO (wild-type CYP2C9 [6]; proton H4′): 4.25 (0.44) seconds
- T1, 2C9 (wild-type CYP2C9 [6]; proton H5): 2.17 (0.07) seconds
- r, distance of proton from the heme iron (wild-type CYP2C9 [6]; proton H5): 6.27 (0.16) angstroms
- T1, 2C9 + CO (wild-type CYP2C9 [6]; proton H5): 2.26 (0.10) seconds
- T1, 2C9 (wild-type CYP2C9 [6]; proton H6): 1.79 (0.05) seconds
- r, distance of proton from the heme iron (wild-type CYP2C9 [6]; proton H6): 7.30 (0.19) angstroms
- T1, 2C9 + CO (wild-type CYP2C9 [6]; proton H6): 2.04 (0.10) seconds
- T1, 2C9 (wild-type CYP2C9 [6]; protons CH3): 0.68 (0.01) seconds
- r, distance of proton from the heme iron (wild-type CYP2C9 [6]; protons CH3): 7.82 (0.09) angstroms
- T1, 2C9 + CO (wild-type CYP2C9 [6]; protons CH3): 0.68 (0.01) seconds
- T1, 2C9 (wild-type CYP2C9 [6]; protons H2′/6′): 2.38 (0.07) seconds
- r, distance of proton from the heme iron (wild-type CYP2C9 [6]; protons H2′/6′): 6.02 (0.37) angstroms
- T1, 2C9 + CO (wild-type CYP2C9 [6]; protons H2′/6′): 2.77 (0.07) seconds
- T1, 2C9 (wild-type CYP2C9 [6]; protons H3′/5′): 2.42 (0.08) seconds
- r, distance of proton from the heme iron (wild-type CYP2C9 [6]; protons H3′/5′): 5.82 (0.15) angstroms
- T1, 2C9 + CO (wild-type CYP2C9 [6]; protons H3′/5′): 2.70 (0.11) seconds
- percent of wild-type ΔA/K (CYP2C9 F114W mutant [7]): 160%
- ΔA/K (CYP2C9 F114W mutant [7]): 8.5 μM^−1 × 10^−3
- ΔAmax (maximum observed difference 390–420 nm) (CYP2C9 F114W mutant [7]): 34 ± 0.4 ×10^−3
- percent of wild-type kcat/Km (CYP2C9 F114L mutant [8]): 28%
- Kd (CYP2C9 F114W mutant [9]): 4 ± 0.2 µM
- percent of wild-type kcat/Km [10]: 3%
- Kd (CYP2C9 F476W mutant [11]): 18.3 ± 1.9 µM
- percent of wild-type ΔA/K (CYP2C9 F100L mutant [12]): 137%
- ΔA/K (CYP2C9 F100L mutant [12]): 7.3 μM^−1 × 10^−3
- ΔAmax (maximum observed difference 390–420 nm) (CYP2C9 F100L mutant [12]): 16 ± 0.3 ×10^−3
- decrease of efficiency of turnover relative to wild-type (CYP2C9 F476W mutant [13]): 20 fold
- percent of wild-type kcat/Km (CYP2C9 F476W mutant [13]): 5%
- kcat (CYP2C9 F476W mutant [13]; substrate hydroxylation): 0.0267 ± 0.0033 s⁻¹
- Kd (CYP2C9 F114L mutant [14]): 4.1 ± 0.6 µM
- H2O2/O2 (CYP2C9 F476W mutant [15]): 0.71
- H2O/Metabolite (CYP2C9 F476W mutant [15]): 1.6
- Metabolite/NADPH (CYP2C9 F476W mutant [15]; coupling efficiency): 0.06
- percent of wild-type ΔA/K [16]: 6%
- ΔA/K [16]: 0.3 μM^−1 × 10^−3
- ΔAmax (maximum observed difference 390–420 nm) [16]: 7.3 ± 0.4 ×10^−3
- percent of wild-type kcat/Km (CYP2C9 F114W mutant [17]): 120%
- kcat (CYP2C9 F114W mutant [17]; substrate hydroxylation): 0.153 ± 0.0067 s⁻¹
- percent of wild-type ΔA/K (CYP2C9 F114L mutant [18]): 46%
- ΔA/K (CYP2C9 F114L mutant [18]): 2.4 μM^−1 × 10^−3
- ΔAmax (maximum observed difference 390–420 nm) (CYP2C9 F114L mutant [18]): 10 ± 0.4 ×10^−3
- percent of wild-type kcat/Km (CYP2C9 F476L mutant [19]; F476L): 29%
- decrease of the efficiency of metabolism (CYP2C9 F476L mutant [19]; F476→L mutation vs wild-type): 70%
- Kd [20]: 9.9 ± 1.3 µM
- percent of wild-type kcat/Km (CYP2C9 F100L mutant [21]): 100%
- kcat (CYP2C9 F100L mutant [21]; substrate hydroxylation): 0.205 ± 0.012 s⁻¹
- Kd (CYP2C9 F476L mutant [22]): 9.1 ± 1 µM
- Kd [23]: 22.3 ± 4.1 µM
- fraction high spin (wild-type CYP2C9 [24]; WT + ligand, used for the NMR distance calculation): 0.16
- percent of wild-type ΔA/K (wild-type CYP2C9 [24]; Wild-type): 100%
- ΔA/K (wild-type CYP2C9 [24]; Wild-type): 5.3 μM^−1 × 10^−3
- ΔAmax (maximum observed difference 390–420 nm) (wild-type CYP2C9 [24]; Wild-type): 18 ± 0.5 ×10^−3
SMILES: C[C@H](C(=O)O)c1ccc(-c2ccccc2)c(F)c1 [(S)-flurbiprofen]
